Measurements from US20160166488A1, “MEDICAMENT” (SYMRISE AG, priority 2013, published 2016).

System: MMP-1
Assay: Inhibition of MMP-1 synthesis: release of MMP-1 from dermal fibroblasts as an effect of UV radiation (Amersham kit RPN2610)
Format: cell-based
Settings: dermal fibroblast culture, test product conc. 0.001 % w/v, incubation 36 h at 37° C., threefold determination; for MMP with UVA: with UVA (method text: UVB radiation 50 mJ/cm^2)
Method: Inhibition of MMP-1 Synthesis
The capacity of the test substances to alleviate the toxic effect of UVA radiation was investigated. A culture of dermal fibroblasts was used as an in vitro system, and the release of MMP-1 from these fibroblasts as an effect of UV radiation was determined. In order to carry out the experiment, a fibroblast culture with fetal calf serum was prepared and inoculated with the test substances 2 days thereafter. After incubation for 36 h at 37° C. with a CO2 level of 5 vol %, the nutrient medium was replaced with an electrolyte solution, and the fibroblasts were damaged with a specified dose of UVB radiation (50 mJ/cm^2). Determination of MMP was carried out with a kit that is commercially available from the firm Amersham under the name RPN2610. The amount of MMP is given in ng/ml from a test series with threefold determination.

## C[N+](C)(C)C[C@H](O)CC(=O)O.[Cl-] [Carnitine*HCl]
  MMP with UVA: 118 ± 21 rel. %
  MMP without UVA: 24 ± 7 rel. %

## NCCC(=O)N[C@@H](Cc1cnc[nH]1)C(=O)O [L-carnosine]
  MMP with UVA: 101 ± 17 rel. %
  MMP without UVA: 22 ± 5 rel. %

## CCCCC(CC)COC(=O)C(C#N)=C(c1ccccc1)c1ccccc1 (centres unmarked) [Octocrinyl, 2-cyano-3,3-phenylcinnamic acid-2-ethylhexyl ester]
  MMP with UVA: 100 ± 20 rel. %
  MMP without UVA: 17 ± 7 rel. %

## CCCCCCOC(=O)c1ccccc1C(=O)c1ccc(N(CC)CC)cc1O [Uvinul A, 2-(4-diethylamino-2-hydroxybenzoyl)-benzoic acid hexyl ester]
  MMP with UVA: 99 ± 12 rel. %
  MMP without UVA: 17 ± 3 rel. %
